Data on 25 compounds can be found in patent publication EP0234499A2, “Antifungal azolylpropanol derivatives” (SHIONOGI SEIYAKU KABUSHIKI KAISHA, priority 1986, dated 1987).

The test system of experiment [1] is Candida albicans KE-2. Briefly: Therapeutic effect against experimental candidiasis in mice. The format is in vivo, Jcl-ICR female mice. The conditions noted are these: mouse survival ratio on the 5th day after infection, 50 mg/kg orally three times (0, 4 and 24 hours after infection), i.v. infection with 2 x 10^6 cells, eight mice per group; for responders at 50 mg/kg: Candida albicans, KE2, po, 120 h; for Therapeutic Effect (%): 50 mg/kg. The method, then:
Therapeutic effect against experimental candidiasis in mice After Candida albicans KE-2 is incubated on Sabouraud's glucose agar at 28 °C for 48 hr., it is suspended in Sabouraud's glucose broth and the cells (2 ^x 10^6) are injected to a tail vein of Jcl-ICR female mice (4 weeks age; weight : 18 - 20 g). A suspension of the test compound in 2 % gum arabic is orally administered three times, immediately after infection of the yeast ( 0 hour), after 4 hours and after 24 hours, as a dosage of 50 mg/kg. Non-treated group is used as control. Eight mice per group are used in the control group and the treated group. All the mice in the control group died within 48 hours after infection. Therapeutic effect of the test compound is judged by mouse survival ratio on the 5th day after infection.

Experiment [2] deals with Candida albicans KE-2. Put plainly: Inhibition test against pseudomycelium formation of Candida albicans. The format is cell-based. The conditions noted are these: minimum effective concentration preventing typical pseudomycelium formation, Eagle-MEM medium with 20 % calf serum, 1 x 10^6 yeast cells/ml, 18 hours at 37 °C, two fold dilution series; for minimal effective concentration: Candida albicans, KE2, read-out: Inhibition for Pseudomyselium Formation of Candida albicans (MEC, μg/ml). The procedure:
Inhibition test against psendomycelium formation of Candida albicans Candida albicans KE-2 was inoculated to Eagle-MEM medium (Nissan 2 made by Nissui Seiyaku, Ltd.) supplemented with 20 % calf serum so that its final inoculum of yeast cell might be 1 x 10^6 yeast cells per milliliter. The test compounds are added thereon in two fold dilution series. After incubation for 18 hours at 37 °C, the fungal growth in each drug concentration is smeared and fixed on a slide glass, and its morphological feature on the presence or absence of the psendomycelium formation is examined by a microscope following Giemsa staining. Minimum effective concentration (MEC, µg/ml) is defined as the lowest concentration of the compound which prevented typical pseudo- mycelium formation.

Regarding `COC(n1cccn1)C(O)(Cn1cncn1)c1ccc(Cl)cc1` (single isomer, unassigned) [Compound 37], the responders at 50 mg/kg in experiment [1] was 62.5%. Moreover, in experiment [2], the “Inhibition for Pseudomyselium Formation of Candida albicans (MEC, μg/ml)” value (shortened to “Inhibition for Pseudomyselium Formation”) is 0.63 µg/mL.

Regarding `COC(n1cccn1)C(O)(Cn1ccnc1)c1ccc(Cl)cc1` (single isomer, unassigned) [Compound 36], the “Therapeutic Effect (%)” value in experiment [1] came out at 37.5%. In addition, in experiment [2], the “Inhibition for Pseudomyselium Formation” value stood at 0.08 µg/mL.

Regarding `COC(n1cccn1)C(O)(Cn1ccnc1)c1ccc(F)cc1` (single isomer, unassigned) [Compound 31], in experiment [1], the “Therapeutic Effect (%)” value is on record as 37.5%. The “Inhibition for Pseudomyselium Formation” value in experiment [2] came out at 1.25 µg/mL.

As for `OC(Cn1cncn1)(c1ccc(F)cc1)C(OCC(F)(F)F)n1cncn1` (single isomer, unassigned) [Compound 32], the responders at 50 mg/kg in experiment [1] came to 50%.

For `COC(n1cncn1)C(O)(Cn1cncn1)c1ccc(F)cc1F` (single isomer, unassigned) [Compound 47, 2-(2,4-Difluorophenyl)-1-methoxy-1,3-bis(1H-1,2,4-tri-azol-1-yl)-2-propanol], the “Inhibition for Pseudomyselium Formation” value in experiment [2] came to 0.31 µg/mL.

For `CCOC(n1cncn1)C(O)(Cn1cncn1)c1ccc(F)cc1` (single isomer, unassigned) [Compound 33], the minimal effective concentration in experiment [2] came out at 1.25 µg/mL.

For `COC(n1cccn1)C(O)(Cn1ccnc1)c1ccc(Cl)cc1` (single isomer, unassigned) [Compound 35], the responders at 50 mg/kg in experiment [1] turned out to be 25%. In addition, in experiment [2], the minimal effective concentration worked out at 0.04 µg/mL.

Take `COC(n1cncn1)C(O)(Cn1cncn1)c1ccccc1F` (single isomer, unassigned) [Compound 51]: in experiment [2], the minimal effective concentration was 0.63 µg/mL.

Consider `COC(n1cccn1)C(O)(Cn1cccn1)c1ccc(Cl)cc1` (single isomer, unassigned) [Compound 38], for which, in experiment [1], the responders at 50 mg/kg was found to be 25%. Further, the minimal effective concentration in experiment [2] worked out at 0.31 µg/mL.

For the compound `COC(n1cnc(C)c1)C(O)(Cn1cncn1)c1ccc(Cl)cc1` (single isomer, unassigned) [Compound 46], in experiment [1], the responders at 50 mg/kg came to 12.5%. The minimal effective concentration in experiment [2] worked out at 0.08 µg/mL.

For the compound `COC(n1cncn1)C(O)(Cn1ccnc1)c1ccc(F)cc1F` (single isomer, unassigned) [Compound 40], the responders at 50 mg/kg in experiment [1] amounted to 37.5%.

As for `COC(n1cncn1)C(O)(Cn1cncn1)c1ccc(Cl)cc1Cl` (single isomer, unassigned) [Compound 25], the responders at 50 mg/kg in experiment [1] turned out to be 100%. Moreover, in experiment [2], the minimal effective concentration was 0.31 µg/mL.

For the compound `COC(n1cncn1)C(O)(Cn1cncn1)c1ccc(Cl)cc1` (single isomer, unassigned) [Compound 26], in experiment [1], the responders at 50 mg/kg came to 100%.

In the case of `COC(n1ccnc1C)C(O)(Cn1cncn1)c1ccc(Cl)cc1` (single isomer, unassigned) [Compound 45], the responders at 50 mg/kg in experiment [1] stood at 37.5%.

In the case of `COC(n1cccn1)C(O)(Cn1ccnc1)c1ccc(F)cc1F` (single isomer, unassigned) [Compound 29], the “Therapeutic Effect (%)” value in experiment [1] worked out at 100.0%. The minimal effective concentration in experiment [2] is 0.31 µg/mL.

Take `COC(n1cncn1)C(O)(Cn1cncn1)c1ccc(F)cc1` (single isomer, unassigned) [Compound 24]: the responders at 50 mg/kg in experiment [1] stood at 87.5%. In addition, the minimal effective concentration in experiment [2] is 1.25 µg/mL.

`COC(n1cccn1)C(O)(Cn1ccnc1)c1ccc(F)cc1F` (single isomer, unassigned) [Compound 30]: in experiment [1], the “Therapeutic Effect (%)” value turned out to be 50.0%. The “Inhibition for Pseudomyselium Formation” value in experiment [2] stood at 0.31 µg/mL.

With `COC(n1cccn1)C(O)(Cn1cncn1)c1ccc(F)cc1` (single isomer, unassigned) [Compound 27], the responders at 50 mg/kg in experiment [1] is 25%.

In the case of `COC(n1cncn1)C(O)(Cn1cncn1)c1ccc(F)cc1F` (single isomer, unassigned) [Compound 21, 2-(2,4-Difluorophenyl)-1-methoxy-1,3-bis(1H-1,2,4-tri-azol-1-yl)-2-propanol], in experiment [1], the responders at 50 mg/kg stood at 87.5%. The “Inhibition for Pseudomyselium Formation” value in experiment [2] worked out at 0.63 µg/mL.

As to `COC(n1cccn1)C(O)(Cn1cncn1)c1ccc(F)cc1F` (single isomer, unassigned) [Compound 49], in experiment [1], the responders at 50 mg/kg came to 75%. Also, in experiment [2], the minimal effective concentration came out at 0.31 µg/mL.

Turning to `CCOC(n1cncn1)C(O)(Cn1cncn1)c1ccc(Cl)cc1Cl` (centres unmarked) [Compound 54], in experiment [1], the responders at 50 mg/kg was determined as 87.5%.

For `COC(n1cccn1)C(O)(Cn1cncn1)c1ccc(Cl)cc1` (single isomer, unassigned) [Compound 34], the minimal effective concentration in experiment [2] was found to be 0.63 µg/mL.

`COC(n1ccnc1)C(O)(Cn1cncn1)c1ccc(Cl)cc1` (single isomer, unassigned) [Compound 23]: the minimal effective concentration in experiment [2] was found to be 0.63 µg/mL.

As to `COC(n1cccn1)C(O)(Cn1ccnc1)c1ccc(F)cc1` (single isomer, unassigned) [Compound 28], the “Therapeutic Effect (%)” value in experiment [1] is 62.5%. For the same compound, the “Inhibition for Pseudomyselium Formation” value in experiment [2] is 0.08 µg/mL.

As for `COC(n1cncn1)C(O)(Cn1ccnc1)c1ccc(Cl)cc1Cl` (single isomer, unassigned) [Compound 44], the responders at 50 mg/kg in experiment [1] was found to be 12.5%.
